Assay results: patent publication US11760744B2, “Fused ring compounds” (Genentech, Inc., priority 2018, dated 2023)

Columns and labels:
K-Ras G12C [1] = biological target: T1, K-Ras G12C (Homo sapiens, UniProt P01116, G12C); assay: Western blot assay for in cell alkylation of K-Ras G12C (HCC1171 cells); format: cell-based; parameters: endogenous in cells; host or cells: HCC1171; details: 18 hours at 37° C., 7 point dose response
Method: Western Blot Assay for in Cell Alkylation of K-Ras G12C
HCC1171 cells were maintained in RPMI1640 supplemented with 10% FBS. Cells were plated in a 96-well plate at 20,000 cells/well and the following day compounds were added to the cells. After 18 hours at 37° C., cells were lysed in RIPA buffer (Sigma R0278) with 0.5% SDS and protease/phosphatase inhibitor cocktail. After through mixing to enable complete lysis, the lysates were cleared by centrifugation before 20 μl was transferred from each well and combined with loading buffer and reducing agent. After heating for 10 minutes at 95° C., 15 μl of each sample was loaded onto a 4-20% Tris-Glycine gel and electrophoresed at 110V for 165 minutes in SDS-PAGE running buffer. Gels were transferred to a nitrocellulose membrane, blocked for 1 hour and stained overnight at 4° C. with primary antibody against K-Ras (polyclonal Proteintech 12063-1-AP). The membrane was then washed thoroughly and counterstained with anti-rabbit IRDye 800CW (LI-COR 926-32211) for one hour at room temperature. After final washes, the membrane was imaged on a LI-COR Odyssey CLx at medium resolution. Alkylated K-Ras was visible by an electrophoretic shift from unmodified K-Ras. To quantify this affect, the LICOR software was used to draw a rectangle over alkylated and unalkylated bands for each well and measured the total fluorescent intensity (FI) in each of these bands. The following formula was then used to calculate % alkylation: FI(alkylated)/(FI(alkylated)+FI(unalkylated))*100 for each well.
A 7 point dose response curve was used to determine the IC50 for each compound. Cell alkylation data are presented below in Table 2.
Target sequence in this assay (P01116 1-188 isoform P01116-2 G12C): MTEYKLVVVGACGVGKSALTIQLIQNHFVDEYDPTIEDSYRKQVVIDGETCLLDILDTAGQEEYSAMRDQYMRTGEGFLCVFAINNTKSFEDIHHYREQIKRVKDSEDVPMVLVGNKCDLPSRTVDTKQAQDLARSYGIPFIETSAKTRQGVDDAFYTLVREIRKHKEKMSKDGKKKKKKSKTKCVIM

K-Ras G12C [2] = biological target: T1, K-Ras G12C; assay: K-Ras G12C, SOS1, Raf RBD HTRF assay for inhibition of GTP exchange; format: biochemical; parameters: K-Ras G12C (residues 2-188) and SOS1 (residues 564-1049) had N-terminal 6-His; made in house; host or cells: E. coli; details: 18 hours preincubation with K-Ras G12C at room temperature; SOS1-mediated GTP exchange
Method: K-Ras G12C, SOS1, Raf RBD Homogeneous Time Resolved Fluorescence (HTRF) Assay for Inhibition of GTP Exchange
After 18 hours at room temperature, the SOS1 GTP exchange factor (1.67 nM during exchange, 1.25 nM final) was added to initiate nucleotide exchange to GTP (200 μM during exchange, 150 μM final). The level of GTP exchange was assessed by addition of a Ras binding domain derived from C-Raf and the HTRF detection antibodies Tb-anti-FLAG and D2-anti-his (Cis-Bio) at 50 nM, 1 nM and 12.5 nM, respectively. After 2 hours, the ratio of 665 nm to 615 nm emission with 320 nm excitation was measured on an Envision plate reader (Perkin Elmer).
The final reaction volume was 20 μl in a ProxiPlate-384F Plus (Perkin Elmer), in buffer containing 20 mM HEPES, 150 mM NaCl, 1 mM MgCl2, 0.1% BSA, 0.03% Tween-20 and 1 mM DTT. […] HTRF data are presented below in Table 2.
Target sequence in this assay (P01116 2-188 isoform P01116-2 G12C): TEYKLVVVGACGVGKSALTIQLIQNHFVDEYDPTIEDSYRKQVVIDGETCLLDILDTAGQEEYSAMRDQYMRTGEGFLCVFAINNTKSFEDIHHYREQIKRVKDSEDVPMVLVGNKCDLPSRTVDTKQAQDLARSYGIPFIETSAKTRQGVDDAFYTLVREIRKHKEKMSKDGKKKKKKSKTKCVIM

`C=CC(=O)N1CCN(c2nc(OC[C@@H]3CCCN3C)nc3c2C[C@H](C)[C@@H](c2nc(N)ccc2C(F)(F)F)C3)[C@@H](C)C1` (single isomer, unassigned) [Example 41a] gave an EC50 (K-Ras G12C [1]) of 880 nM and an IC50 (K-Ras G12C [2]) of 500 nM.

`C=CC(=O)N1CCN(c2ncnc3c2C[C@@H](C)[C@H](c2nc(N)ccc2C(F)(F)F)C3)CC1` (single isomer, unassigned) [Example 42b] gave an EC50 (K-Ras G12C [1]) of 360 nM and an IC50 (K-Ras G12C [2]) of 67 nM.

Compound `C=CC(=O)N1CCN(c2ncnc3c2CC[C@@H](c2cncc4ccccc24)C3)CC1` (single isomer, unassigned) [Example 44a] has an EC50 (K-Ras G12C [1]) of 1000 nM and an IC50 (K-Ras G12C [2]) of over 50000 nM.

`C=CC(=O)N1CCN(c2ncnc3c2CC[C@H](c2cncc4ccccc24)C3)CC1` (single isomer, unassigned) [Example 44b] showed an EC50 (K-Ras G12C [1]) of 1000 nM and an IC50 (K-Ras G12C [2]) of 8700 nM.

Compound `C=CC(=O)N1CCN(c2ncnc3c2CC[C@H](c2nc(N)ccc2C(F)(F)F)C3)CC1` (single isomer, unassigned) [Example 46b] has an EC50 (K-Ras G12C [1]) of 970 nM and an IC50 (K-Ras G12C [2]) of 230 nM.

Work on `C=C(F)C(=O)N1CCN(c2nc(OC[C@@H]3CCCN3C)nc3c2CCC(c2cccc4ccccc24)C3)CC1CC#N` (single isomer, unassigned) [Example 47a] yielded an EC50 (K-Ras G12C [1]) of 530 nM and an IC50 (K-Ras G12C [2]) of 150 nM.

`C=C(F)C(=O)N1CCN(c2nc(OC[C@@H]3CCCN3C)nc3c2CCC(c2cccc4ccccc24)C3)CC1CC#N` (single isomer, unassigned) [Example 47c] showed an EC50 (K-Ras G12C [1]) of 450 nM and an IC50 (K-Ras G12C [2]) of 130 nM.

With `C=C(F)C(=O)N1CCN(c2nc(OC[C@@H]3CCCN3C)nc3c2CCC(c2cccc4ccccc24)C3)C[C@@H]1CC#N` (single isomer, unassigned) [Example 47d] the EC50 (K-Ras G12C [1]) was 30 nM and the IC50 (K-Ras G12C [2]) was under 10 nM.

`C=CC(=O)N1CCN(c2nc(OC[C@@H]3COC(=O)N3C)nc3c2CC[C@H](c2cc(O)cc4ccccc24)C3)[C@@H](C)C1` (single isomer, unassigned) [Example 57c] gave an EC50 (K-Ras G12C [1]) of 830 nM and an IC50 (K-Ras G12C [2]) of 53 nM.

In the case of `C=CC(=O)N1CCN(c2nc(OC[C@H]3COC(=O)N3C)nc3c2CC[C@H](c2cc(O)cc4ccccc24)C3)[C@@H](C)C1` (single isomer, unassigned) [Example 57d], the EC50 (K-Ras G12C [1]) is reported as 880 nM and the IC50 (K-Ras G12C [2]) is reported as 45 nM.

Work on `C=CC(=O)N1CCN(c2nc(OC[C@@H]3CCCN3C)nc3c2CC[C@H](c2cc(O)cc4ccccc24)C3)C[C@@H]1CC#N` (single isomer, unassigned) [Example 58b] yielded an EC50 (K-Ras G12C [1]) of 1900 nM and an IC50 (K-Ras G12C [2]) of 130 nM.

`C=CC(=O)N1CCN(c2nc(OC[C@@H]3CCCN3C)nc3c2CC[C@H](c2cc(O)cc4ccccc24)C3)C[C@H]1CC#N` (single isomer, unassigned) [Example 58c] showed an EC50 (K-Ras G12C [1]) of 340 nM and an IC50 (K-Ras G12C [2]) of 29 nM.

`C=CC(=O)N1CCN(c2nc(OC[C@@H]3CCCN3C)nc3c2CC[C@@H](c2cc(O)cc4ccccc24)C3)C[C@@H]1CC#N` (single isomer, unassigned) [Example 58d] gave an EC50 (K-Ras G12C [1]) of 6.3 nM and an IC50 (K-Ras G12C [2]) of 24 nM.

Work on `C=CC(=O)N1CCN(c2nc(OC[C@@H]3CCCN3C)nc3c2CC[C@@H](c2cc(O)cc4ccccc24)C3)C[C@H]1CC#N` (single isomer, unassigned) [Example 58e] yielded an EC50 (K-Ras G12C [1]) of 110 nM and an IC50 (K-Ras G12C [2]) of 29 nM.

`C=C(F)C(=O)N1CCN(c2nc(OC[C@@H]3CCCN3C)nc3c2CC[C@H](c2cc(O)cc4ccccc24)C3)C[C@H]1CC#N` (single isomer, unassigned) [Example 61b] showed an EC50 (K-Ras G12C [1]) of 2800 nM and an IC50 (K-Ras G12C [2]) of 640 nM.

Work on `C=C(F)C(=O)N1CCN(c2nc(OC[C@@H]3CCCN3C)nc3c2CC[C@H](c2cc(O)cc4ccccc24)C3)C[C@@H]1CC#N` (single isomer, unassigned) [Example 61c] yielded an EC50 (K-Ras G12C [1]) of 1800 nM and an IC50 (K-Ras G12C [2]) of 83 nM.

For `C=C(F)C(=O)N1CCN(c2nc(OC[C@@H]3CCCN3C)nc3c2CC[C@@H](c2cc(O)cc4ccccc24)C3)C[C@H]1CC#N` (single isomer, unassigned) [Example 61d], the EC50 (K-Ras G12C [1]) was 11 nM and the IC50 (K-Ras G12C [2]) was 28 nM.

`C=C(F)C(=O)N1CCN(c2nc(OC[C@@H]3CCCN3C)nc3c2CC[C@@H](c2cc(O)cc4ccccc24)C3)C[C@@H]1CC#N` (single isomer, unassigned) [Example 61e] was tested, and the EC50 (K-Ras G12C [1]) was 1500 nM and the IC50 (K-Ras G12C [2]) was 90 nM.

Compound `CN1CCC[C@H]1COc1nc2c(c(N3CCN(C(=O)/C=C/CF)[C@H](CC#N)C3)n1)CC[C@H](c1cc(O)cc3ccccc13)C2` (single isomer, unassigned) [Example 62b] has an EC50 (K-Ras G12C [1]) of 2900 nM and an IC50 (K-Ras G12C [2]) of 180 nM.

Work on `CN1CCC[C@H]1COc1nc2c(c(N3CCN(C(=O)/C=C/CF)[C@@H](CC#N)C3)n1)CC[C@H](c1cc(O)cc3ccccc13)C2` (single isomer, unassigned) [Example 62c] yielded an EC50 (K-Ras G12C [1]) of 1000 nM and an IC50 (K-Ras G12C [2]) of 73 nM.

Compound `CN1CCC[C@H]1COc1nc2c(c(N3CCN(C(=O)/C=C/CF)[C@H](CC#N)C3)n1)CCC(c1cc(O)cc3ccccc13)C2` (single isomer, unassigned) [Example 62d] has an EC50 (K-Ras G12C [1]) of 6.4 nM and an IC50 (K-Ras G12C [2]) of under 10 nM.

`CN1CCC[C@H]1COc1nc2c(c(N3CCN(C(=O)/C=C/CF)[C@@H](CC#N)C3)n1)CC[C@@H](c1cc(O)cc3ccccc13)C2` (single isomer, unassigned) [Example 62e] was tested, and the EC50 (K-Ras G12C [1]) was 450 nM and the IC50 (K-Ras G12C [2]) was 660 nM.

With `C=CC(=O)N1CCC(C#N)(c2nc(OC[C@@H]3CCCN3C)nc3c2CCC(c2cc(O)cc4ccccc24)C3)CC1` (stereo partly drawn) [Example 7a, 4-[7-(3-hydroxy-1-naphthyl)-2-[[(2S)-1-methylpyrrolidin-2-yl]methoxy]-5,6,7,8-tetrahydroquinazolin-4-yl]-1-prop-2-enoyl-piperidine-4-carbonitrile] the EC50 (K-Ras G12C [1]) was 2500 nM and the IC50 (K-Ras G12C [2]) was 87 nM.

`C=CC(=O)N1CCN(c2nc(OC[C@@H]3CCCN3C)nc3c2CC(C)C(c2c(C)ccc4[nH]ncc24)C3)CC1` (stereo partly drawn) [Example 18a, 1-(4-(6-methyl-7-(5-methyl-1H-indazol-4-yl)-2-(((S)-1-methylpyrrolidin-2-yl)methoxy)-5,6,7,8-tetrahydroquinazolin-4-yl)piperazin-1-yl)prop-2-en-1-one] gave an EC50 (K-Ras G12C [1]) of 280 nM and an IC50 (K-Ras G12C [2]) of 24 nM.

`C=CC(=O)N1CCN(c2nc(OC[C@@H]3CCCN3C)nc3c2CCC2(CCCCC2)C3)CC1` [Example 25a, (S)-1-(4-(2′-((1-methylpyrrolidin-2-yl)methoxy)-5′,8′-dihydro-6′H-spiro[cyclohexane-1,7′-quinazolin]-4′-yl)piperazin-1-yl)prop-2-en-1-one] was tested, and the EC50 (K-Ras G12C [1]) was 1000 nM and the IC50 (K-Ras G12C [2]) was 5400 nM.

With `C=CC(=O)N1CCN(c2ncnc3c2CCC(c2nc(N)cc(C)c2C(F)(F)F)C3)CC1` (centres unmarked) [Example 26, 1-[4-[7-[6-amino-4-methyl-3-(trifluoromethyl)-2-pyridyl]-5,6,7,8-tetrahydroquinazolin-4-yl]piperazin-1-yl]prop-2-en-1-one] the EC50 (K-Ras G12C [1]) was 2200 nM and the IC50 (K-Ras G12C [2]) was 270 nM.

Compound `C=CC(=O)N1CCN(c2ncnc3c2CC[C@H](c2nc(N)cc(C)c2C(F)(F)F)C3)CC1` [Example 26a, (S)-1-(4-(7-(6-amino-4-methyl-3-(trifluoromethyl)pyridin-2-yl)-5,6,7,8-tetrahydroquinazolin-4-yl)piperazin-1-yl)prop-2-en-1-one] has an EC50 (K-Ras G12C [1]) of 1200 nM and an IC50 (K-Ras G12C [2]) of 180 nM.

`C=CC(=O)N1CCN(c2ncnc3c2CC[C@@H](c2nc(N)cc(C)c2C(F)(F)F)C3)CC1` [Example 26b, (R)-1-(4-(7-(6-amino-4-methyl-3-(trifluoromethyl)pyridin-2-yl)-5,6,7,8-tetrahydroquinazolin-4-yl)piperazin-1-yl)prop-2-en-1-one] was tested, and the EC50 (K-Ras G12C [1]) was 17000 nM and the IC50 (K-Ras G12C [2]) was 4800 nM.
